For eight compounds, GI50 and TGI results are on record in PubChem BioAssay (NCI).

The structures appear in SMILES notation.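 Exposure lasted 48 hours, with cells grown in 96-well plates and compounds tested at five concentrations. Here, GI50 denotes the concentration required for 50% inhibition of growth. TGI is the concentration that stops growth completely.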 A value given as a limit tells only on which side of the number the result lay.

Test systems include K-562 leukemia; HL-60(TB) leukemia; LOX IMVI melanoma; MOLT-4 leukemia; MALME-3M melanoma; OVCAR-5 ovarian; U251 CNS; UACC-62 melanoma; NCI/ADR-RES ovarian; NCI-H522 lung.
Test in all cases: NCI tumour cell line growth inhibition, 48 h

Take `O=C1Nc2ccccc2/C1=C/c1cn(CC(O)Cn2cc(/C=C3\C(=O)Nc4ccccc43)c3ccccc32)c2ccccc12` (stereo unspecified): the GI50 was 1.19 µM in the experiment with K-562 leukemia; 2.95 µM in the experiment with HL-60(TB) leukemia; 0.326 µM with LOX IMVI melanoma; 2.58 µM in the experiment on MOLT-4 leukemia; 1.51 µM in the experiment with MALME-3M melanoma; 1.74 µM in the experiment on OVCAR-5 ovarian. The GI50 in the experiment with U251 CNS was 1.52 µM; in the experiment with UACC-62 melanoma, 1.64 µM; in the experiment with NCI/ADR-RES ovarian it was 12.1 µM. Moreover, the TGI amounted to 3.56 µM in the experiment on K-562 leukemia; 10.8 µM in the experiment with HL-60(TB) leukemia; 1.31 µM in the experiment with LOX IMVI melanoma; 7.42 µM in the experiment with MOLT-4 leukemia; 3.26 µM in the experiment on MALME-3M melanoma; 4.53 µM in the experiment on OVCAR-5 ovarian. Moreover, the TGI with U251 CNS came out at 2.92 µM; with UACC-62 melanoma, 3.16 µM; in the experiment on NCI/ADR-RES ovarian, 57.1 µM.

As for `COc1ccc(-c2nn3ncccc3c2-c2ccnc(Nc3ccc4c(c3)OCCO4)n2)cc1`, the GI50 was 9.06 µM in the experiment with K-562 leukemia; 12.9 µM in the experiment on HL-60(TB) leukemia; 3.65 µM in the experiment with LOX IMVI melanoma; 14.2 µM in the experiment with MOLT-4 leukemia; 12.5 µM in the experiment with MALME-3M melanoma; 5.72 µM with OVCAR-5 ovarian. The GI50 in the experiment with U251 CNS is 14.3 µM; with UACC-62 melanoma, 5.23 µM; with NCI-H522 lung, 5.56 µM; in the experiment with NCI/ADR-RES ovarian, 7.52 µM. Also, the TGI in the experiment with K-562 leukemia, in the experiment with HL-60(TB) leukemia, in the experiment on LOX IMVI melanoma, with MOLT-4 leukemia, with MALME-3M melanoma and in the experiment on OVCAR-5 ovarian was above 25 µM in each case. Besides, the TGI in the experiment with U251 CNS is above 25 µM; with UACC-62 melanoma, above 25 µM; with NCI-H522 lung, 23 µM; with NCI/ADR-RES ovarian, above 25 µM.

As to `NC(CSC(c1ccccc1)(c1ccccc1)c1ccc(F)cc1)C(=O)O` (stereo unspecified), the GI50 is 0.356 µM in the experiment with K-562 leukemia; 0.268 µM in the experiment on HL-60(TB) leukemia; 0.891 µM in the experiment on LOX IMVI melanoma; 1.37 µM in the experiment with MOLT-4 leukemia; 2.39 µM in the experiment on MALME-3M melanoma; 4.18 µM in the experiment with OVCAR-5 ovarian. Further, the GI50 was 0.374 µM in the experiment with U251 CNS, 0.408 µM in the experiment on UACC-62 melanoma, 0.3 µM in the experiment on NCI-H522 lung and 2.98 µM in the experiment on NCI/ADR-RES ovarian. The TGI in the experiment on HL-60(TB) leukemia was 2.47 µM; in the experiment on LOX IMVI melanoma, above 100 µM; in the experiment on MOLT-4 leukemia it was above 46.9 µM; with MALME-3M melanoma, above 100 µM; in the experiment with OVCAR-5 ovarian, above 76.5 µM; with U251 CNS, above 60.5 µM. Further, the figures for the TGI with NCI-H522 lung and in the experiment with NCI/ADR-RES ovarian were 0.704 µM and 19.2 µM, respectively.

On to `Oc1c(O)c(Cl)c(Cl)c(Cl)c1Cl`, for which the GI50 in the experiment with K-562 leukemia was 3.49 µM; in the experiment on HL-60(TB) leukemia, 1.85 µM; in the experiment on LOX IMVI melanoma, 3.65 µM; with MOLT-4 leukemia, 3.51 µM; in the experiment on MALME-3M melanoma, 2.83 µM; in the experiment on OVCAR-5 ovarian, 9.62 µM. The GI50 in the experiment on U251 CNS is 4.21 µM; in the experiment with UACC-62 melanoma, 2.95 µM; in the experiment on NCI-H522 lung, 1.65 µM; in the experiment with NCI/ADR-RES ovarian it was 3.01 µM. Further, the TGI with K-562 leukemia is above 100 µM; in the experiment with HL-60(TB) leukemia it was 7.21 µM; with LOX IMVI melanoma, 20.3 µM; in the experiment with MOLT-4 leukemia, 69.7 µM; in the experiment with MALME-3M melanoma, 13.4 µM; in the experiment with OVCAR-5 ovarian, 42.5 µM. The TGI with U251 CNS came out at 86.2 µM; with UACC-62 melanoma, 10.2 µM; in the experiment on NCI-H522 lung it was 4.54 µM; with NCI/ADR-RES ovarian it was 10.3 µM.

`C=C(CN1c2ccccc2Sc2ccccc21)c1ccc(C(=O)Nc2ccccc2N)cc1`: the GI50 in the experiment on K-562 leukemia is 2.47 µM; in the experiment on HL-60(TB) leukemia it was 0.184 µM; in the experiment on LOX IMVI melanoma it was above 52.7 µM; with MOLT-4 leukemia, 0.276 µM; in the experiment with MALME-3M melanoma, above 23 µM; in the experiment with OVCAR-5 ovarian, above 100 µM. Also, the GI50 with U251 CNS is above 50.3 µM; in the experiment on UACC-62 melanoma, 93 µM; in the experiment with NCI-H522 lung, 1.63 µM; in the experiment on NCI/ADR-RES ovarian, 8.77 µM. Also, the TGI is above 100 µM in the experiment on K-562 leukemia; above 100 µM in the experiment on HL-60(TB) leukemia; above 100 µM in the experiment on LOX IMVI melanoma; above 65.2 µM in the experiment on MOLT-4 leukemia; above 100 µM in the experiment with MALME-3M melanoma; above 100 µM in the experiment on OVCAR-5 ovarian. Also, the TGI with U251 CNS, in the experiment on UACC-62 melanoma, with NCI-H522 lung and in the experiment on NCI/ADR-RES ovarian was above 100 µM throughout.

As for `CCc1nn2ncccc2c1-c1ccnc(NC2CC2)n1`, the GI50 with K-562 leukemia, in the experiment on HL-60(TB) leukemia, in the experiment on LOX IMVI melanoma, in the experiment on MOLT-4 leukemia, with MALME-3M melanoma and in the experiment with OVCAR-5 ovarian was above 25 µM in each case. In addition, the GI50 in the experiment on U251 CNS, with UACC-62 melanoma, in the experiment with NCI-H522 lung and in the experiment on NCI/ADR-RES ovarian was above 25 µM each time. In addition, the TGI in the experiment with K-562 leukemia, in the experiment with HL-60(TB) leukemia, in the experiment with LOX IMVI melanoma, in the experiment with MOLT-4 leukemia, in the experiment with MALME-3M melanoma and with OVCAR-5 ovarian was above 25 µM each time. Besides, the TGI with U251 CNS, with UACC-62 melanoma, with NCI-H522 lung and in the experiment on NCI/ADR-RES ovarian was above 25 µM in each case.

Regarding `CC[C@@H](O)C[C@H]1CCC[C@@]2(C[C@@H]3OC(=O)/C=C/[C@@](C)(O)[C@@H](O)[C@H](C)[C@@H](O)[C@H](OC4CCC(N(C)C)C(C)O4)[C@@H](O)[C@](C)(O)CCCCC/C=C/[C@@H]4CC(C)(C)O[C@@]4(O)C[C@H](O2)[C@H]3C)O1` (stereo partly specified), the TGI was 21.5 µM with K-562 leukemia; above 39.8 µM in the experiment on HL-60(TB) leukemia; 9.46 µM in the experiment on LOX IMVI melanoma; 23.3 µM in the experiment on MOLT-4 leukemia; 15.5 µM with MALME-3M melanoma; 28.1 µM in the experiment with OVCAR-5 ovarian. Further, the TGI was determined as 36.8 µM with U251 CNS, 21.8 µM in the experiment with UACC-62 melanoma, 12.3 µM with NCI-H522 lung and 24 µM with NCI/ADR-RES ovarian.

Consider `Nc1ccc(-c2ccc3ncc4ccc(=O)n(-c5cccc(C(F)(F)F)c5)c4c3c2)cn1`, for which the GI50 in the experiment on K-562 leukemia is below 0.014 µM; in the experiment on HL-60(TB) leukemia, 0.0408 µM; in the experiment on LOX IMVI melanoma, below 0.01 µM; with MOLT-4 leukemia, below 0.012 µM; in the experiment with MALME-3M melanoma it was below 0.01 µM; in the experiment on OVCAR-5 ovarian it was below 0.0145 µM. Moreover, the GI50 was below 0.01 µM in the experiment with U251 CNS, below 0.01 µM in the experiment on UACC-62 melanoma, below 0.01 µM in the experiment with NCI-H522 lung and 0.02 µM in the experiment with NCI/ADR-RES ovarian. In addition, the TGI in the experiment with K-562 leukemia is above 43.2 µM; with HL-60(TB) leukemia, 8.66 µM; with LOX IMVI melanoma, 0.481 µM; in the experiment with MOLT-4 leukemia, 0.402 µM; with MALME-3M melanoma, 0.0315 µM; in the experiment with OVCAR-5 ovarian, 31.5 µM. Also, the TGI in the experiment on U251 CNS amounted to 0.948 µM; in the experiment on UACC-62 melanoma it was 0.026 µM; in the experiment on NCI-H522 lung it was 2.03 µM; in the experiment with NCI/ADR-RES ovarian it was 13.1 µM.
